Laboratory results: patent US9643960B2, “Procaspase activating compounds” (The Board of Trustees of the University of Illinois, priority 2009, dated 2017)
Values after ≈ are worked out from the molar mass of the structure shown. Like-named read-outs stand apart in the source and are kept apart here.

Experiments:
[1] = Solubility in β-cyclodextran; format: physicochemical
[2] = test system: U937 human lymphoma cells; test: Cell death assay in U937 cells (sulforhodamine B, 72 h); format: cell-based; conditions: Homo sapiens, U-937, 72 h
Procedure: To each well was added 2 μL of 100× compound stock solutions in DMSO at varying concentrations so that the cells were treated with concentrations between 0 μM and 100 μM compound. Each concentration was tested in quintuplicate. In each plate 5 wells received 10 μM etoposide as a positive control and 5 wells received 2 μL of DMSO as a negative control. […] 1 Specifically, to each well of the plate was added 50 μL of an 80% (w/v) solution of TCA in H2O and the plates were allowed to rest at 4° C. overnight. The plates were then washed gently with a steam of H2O five times to remove the excess TCA and precipitated serum proteins. […] After staining, the wells were gently washed 5 times with 100 μL of 1% (v/v) acetic acid to remove the unbound dye. The plates were then allowed to air dry. […] The OD was then read at 510 nm in a Molecular Dynamics plate reader and the percent cell death calculated and normalized to the positive control (100% cell death) and the negative control (0% cell death). The percent cell death was averaged for each compound concentration and plotted as a function of compound concentration. The data were fit to a logistical dose response curve using Table curve 2D and the IC50 value was calculated. The experiment was repeated three times and the average of the calculated IC50 values was reported. The standard error of the mean (SEM) was determined and reported for the triplicate experiments.
U-937 cells grow in culture as a suspension.

OSW = test: Cytotoxicity in OSW cells (sulforhodamine B, 72 h); format: cell-based; conditions: Canis lupus familiaris, Dog Lymphoma
SK-Mel-5 = test: Cytotoxicity in SK-Mel-5 cells (sulforhodamine B, 72 h); format: cell-based; conditions: SK-Mel-5, Human Melanoma
HeLa = test: Cytotoxicity in HeLa cells (sulforhodamine B, 72 h); format: cell-based; conditions: Human Cervical
C57/BL6 mice = test: Neurotoxicity in mice after intravenous administration; format: in vivo, mouse; conditions: for Neurotoxicity: Mice, preliminary results
MDA-MB-231 = test: Cytotoxicity in MDA-MB-231 cells (sulforhodamine B, 72 h); format: cell-based; conditions: MDA-MB-231, Human Breast
Jurkat = test: Cytotoxicity in Jurkat cells (sulforhodamine B, 72 h); format: cell-based; conditions: Human Leukemia
GL-1 = test: Cytotoxicity in GL-1 cells (sulforhodamine B, 72 h); format: cell-based; conditions: Canis lupus familiaris, GL-1, Dog Lymphoma
17-71 = test: Cytotoxicity in 17-71 cells (MTS cell viability assay); format: cell-based; conditions: Canis lupus familiaris, 17-71, Dog Lymphoma
[3] = test system: healthy research hound dog; test: Neurotoxicity in dogs; format: in vivo
Source text: Further information about this compound is described elsewhere herein.

EL-4 = test: Cytotoxicity in EL-4 cells (sulforhodamine B, 72 h); format: cell-based; conditions: EL4, EL-4, Mouse Lymphoma
[4] = Formulation of PAC-1 in aqueous 2-hydroxypropyl-β-cyclodextrin; format: physicochemical
Source text: Formulation of PAC-1. […] Complete dissolution requires acidification of the aqueous solution to pH 1.5-2, and then the solution is restored to pH 5-6.

U-937 cells = test: Induction of apoptosis, annexin V/PI staining; format: cell-based, human; conditions: 50 μM, 12 hours
Procedure: The cells were centrifuged (200 g for 5 min), washed with PBS (2 mL), resuspended in 500 μL Annexin V Binding Buffer. To each sample was added 10 μL of FITC conjugated Annexin V stain (Southern Biotech) and 10 μL of propidium iodide (Sigma) to a final concentration of 50 μg/mL. Cell populations were analyzed on a Benton Dickinson LSR II cell flow cytometer.

C=CCc1cccc(/C=N/NC(=O)CN2CCN(Cc3ccccc3)CC2)c1O [PAC-1]
Solubility in β-Cyclodextran (mg β-CD/μmol Compound) [1]: 5.3 mg β-CD/μmol Compound
IC50 ([2]; read-out: IC50 Value (μM), U-937, Human Lymphoma, 72 hours): 9.3 ± 0.5 µM
IC50 ([2]; read-out: U937 (IC50 μM), 72 h exposure, sulforhodamine B assay): 4.8 ± 1 µM
IC50 (OSW): 8.6 ± 1.3 µM
IC50 (SK-Mel-5): 11.5 ± 3.6 µM
IC50 (HeLa): 15.5 ± 3.8 µM
Neurotoxicity (C57/BL6 mice; 12.5 mg/kg): No
Neurotoxicity (C57/BL6 mice; 37.5 mg/kg): Yes
clinical signs of toxicity (C57/BL6 mice; mice, 10 mg/kg i.v., observed 24 hours): no clinical signs of toxicity were observed
clinical signs of toxicity (C57/BL6 mice; mice, 20 mg/kg i.v.): mild neurological symptoms including lethargy, and mild ataxia
persistence of symptoms after injection (C57/BL6 mice; mice, 20 mg/kg i.v.): 20 min
ataxia (incidence) (C57/BL6 mice; mice, 30 mg/kg i.v.): 3/3
clinical signs of toxicity (C57/BL6 mice; mice, 30 mg/kg i.v.): overt signs of neurotoxicity
duration of neurotoxicity (C57/BL6 mice; mice, 30 mg/kg i.v.): approximately 15 minutes
loss of balance (incidence) (C57/BL6 mice; mice, 30 mg/kg i.v.): 3/3
onset of neurotoxicity after injection (C57/BL6 mice; mice, 30 mg/kg i.v.): ≤ 5 min
spasms (incidence) (C57/BL6 mice; mice, 30 mg/kg i.v.): 1/3
clinical signs of toxicity (C57/BL6 mice; mice, 50 mg/kg i.v.): acute neurotoxic symptoms with more pronounced ataxia and loss of balance
IC50 (MDA-MB-231): 9.9 ± 1 µM
IC50 (Jurkat): 5.7 ± 2.8 µM
IC50 (GL-1): 4.9 ± 0.3 µM
IC50 (17-71): 2.5 ± 0.9 µM
toxicity at higher doses ([3]; dog, formulation with 2-hydroxypropyl-β-cyclodextrin): acute neurological toxicity (ataxia and seizure)
duration of neurotoxicity ([3]; one hound dog, 60 mg/kg i.v.): 20 min
IC50 (EL-4): 3.8 ± 0.9 µM
solubility ([4]; aqueous 200 mg/mL 2-hydroxypropyl-β-cyclodextrin solution, aqueous with cosolvent or surfactant or cyclodextrin, aqueous 200 mg/mL solution of 2-hydroxypropyl-β-cyclodextrin): 20 mg/mL (≈ 51 mM)
stability in solution ([4]; stored at 4° C., pH 5-6): at least 5 days
apoptosis (annexin V staining) (U-937 cells): ~40%
